Patent publication US5928932A, “Isolated gene encoding an enzyme with UDP-glucose pyrophosphorylase and phosphoglucomutase activities from Cyclotella cryptica” (priority 1996, dated 1999)

Biological target: T1, purified UGPase/PGMase protein (Cyclotella cryptica, UniProt A0ABD3PLY7)
T1 construct: both domains act
Format: biochemical
Conditions: determined via double reciprocal plots; glucose-6-phosphate versus glucose-1-phosphate as substrate
Procedure: P-4252) were added to each reaction and incubated for one hour at 30° C. The reaction mixtures were spotted onto separate 2.5 cm DE81 filter disks (Whatman Inc.; Fairfield, N.J.), which were then washed in five consecutive batches of water (200 mL each). The radioactivity of each filter was determined by liquid scintillation counting.

T1 sequence (A0ABD3PLY7 entry or part of it R291K): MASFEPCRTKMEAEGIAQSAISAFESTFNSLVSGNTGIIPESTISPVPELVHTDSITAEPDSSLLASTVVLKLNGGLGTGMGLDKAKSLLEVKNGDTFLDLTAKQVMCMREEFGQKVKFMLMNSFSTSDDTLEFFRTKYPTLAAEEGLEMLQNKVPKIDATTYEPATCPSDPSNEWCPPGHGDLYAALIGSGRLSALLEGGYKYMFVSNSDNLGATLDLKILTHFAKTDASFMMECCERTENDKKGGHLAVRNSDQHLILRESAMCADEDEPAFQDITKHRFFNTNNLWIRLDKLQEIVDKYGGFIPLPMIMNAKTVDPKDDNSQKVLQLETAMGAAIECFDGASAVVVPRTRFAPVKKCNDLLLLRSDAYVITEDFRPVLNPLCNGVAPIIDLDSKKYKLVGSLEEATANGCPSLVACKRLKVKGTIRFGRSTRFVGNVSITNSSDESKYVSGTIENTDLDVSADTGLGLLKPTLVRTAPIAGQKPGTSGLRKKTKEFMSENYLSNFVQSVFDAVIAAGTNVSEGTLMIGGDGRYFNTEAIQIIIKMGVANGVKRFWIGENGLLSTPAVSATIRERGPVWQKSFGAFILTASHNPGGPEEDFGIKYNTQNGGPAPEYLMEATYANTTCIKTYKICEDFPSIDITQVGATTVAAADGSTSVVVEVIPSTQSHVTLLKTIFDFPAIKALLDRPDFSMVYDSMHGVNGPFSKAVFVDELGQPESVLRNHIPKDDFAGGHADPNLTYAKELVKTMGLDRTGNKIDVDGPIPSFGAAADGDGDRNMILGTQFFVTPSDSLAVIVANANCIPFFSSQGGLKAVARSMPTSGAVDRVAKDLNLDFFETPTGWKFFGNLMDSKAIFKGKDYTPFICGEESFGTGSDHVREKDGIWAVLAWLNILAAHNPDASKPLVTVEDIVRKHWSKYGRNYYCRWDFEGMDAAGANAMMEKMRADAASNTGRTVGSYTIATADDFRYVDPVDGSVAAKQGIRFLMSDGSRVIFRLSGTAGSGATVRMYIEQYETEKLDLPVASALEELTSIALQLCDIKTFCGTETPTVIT

## O=P(O)(O)OC[C@H]1OC(O)[C@H](O)[C@@H](O)[C@@H]1O (stereo partly shown) [glucose-6-phosphate]
  maximum velocity of UDP-glucose formation, fold less than for glucose-1-phosphate: 13 fold
